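How tested: cells in 96-well plates exposed to compound for 48 hours at five concentrations. GI50 is the concentration that inhibits growth by half. The concentration for full growth arrest is given as TGI.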
What was measured:
Assay in all cases: NCI-60 cell line screen, 48 h
[1] = system: RPMI-8226 leukemia
[2] = system: U251 CNS
[3] = system: SR leukemia
[4] = system: SNB-78 CNS
[5] = system: NCI-H460 lung
[6] = system: DMS 273 small cell lung
[7] = system: HCT-15 colon
[8] = system: SF-539 CNS
[9] = system: EKVX NSCLC
[10] = system: DLD-1 colon
[11] = system: A498 renal
[12] = system: HOP-92 NSCLC
[13] = system: M14 melanoma
[14] = system: SK-MEL-5 melanoma
[15] = system: NCI-H522 lung
[16] = system: NCI-H23 lung
[17] = system: SNB-19 CNS
[18] = system: HOP-62 NSCLC
[19] = system: TK-10 renal
[20] = system: RXF-631 renal
[21] = system: CCRF-CEM leukemia
[22] = system: SNB-75 CNS
[23] = system: UACC-62 melanoma
[24] = system: XF 498 CNS
[25] = system: A549 NSCLC
[26] = system: KM12 colon
[27] = system: M19-MEL melanoma
[28] = system: UACC-257 melanoma
[29] = system: HT29 colon
[30] = system: RXF 393 renal
[31] = system: OVCAR-3 ovarian
[32] = system: IGROV1 ovarian
[33] = system: SN12C renal
[34] = system: UO-31 renal
[35] = system: SW-620 colon
[36] = system: SF-295 CNS
[37] = system: COLO 205 colon
[38] = system: OVCAR-4 ovarian
[39] = system: SF-268 CNS
[40] = system: OVCAR-5 ovarian
[41] = system: HCT-116 colon
[42] = system: OVCAR-8 ovarian
[43] = system: DMS 114 small cell lung
[44] = system: 786-0 renal
[45] = system: LXFL 529 NSCLC
[46] = system: HL-60(TB) leukemia
[47] = system: HCC-2998 colon
[48] = system: KM20L2 colon
[49] = system: K-562 leukemia
[50] = system: CAKI-1 renal
[51] = system: NCI-H226 lung
[52] = system: SK-OV-3 ovarian
[53] = system: MOLT-4 leukemia
[54] = system: LOX IMVI melanoma
[55] = system: MALME-3M melanoma
[56] = system: SK-MEL-28 melanoma
[57] = system: ACHN renal
[58] = system: SK-MEL-2 melanoma

N#CC(C#N)=C(C(C#N)C#N)C(C#N)C#N
TGI [1]: > 100 µM
TGI [2]: > 100 µM
TGI [3]: > 100 µM
TGI [4]: > 100 µM
TGI [5]: > 100 µM
TGI [6]: > 100 µM
TGI [7]: > 100 µM
TGI [8]: > 100 µM
TGI [9]: > 100 µM
TGI [10]: > 100 µM
TGI [11]: > 100 µM
TGI [12]: > 100 µM
TGI [13]: > 100 µM
TGI [14]: > 100 µM
TGI [15]: > 100 µM
TGI [16]: > 100 µM
TGI [17]: > 100 µM
TGI [18]: > 100 µM
TGI [19]: > 100 µM
TGI [20]: > 100 µM
TGI [21]: > 100 µM
TGI [22]: > 100 µM
TGI [23]: > 100 µM
TGI [24]: > 100 µM
TGI [25]: > 100 µM
TGI [26]: > 100 µM
TGI [27]: > 100 µM
TGI [28]: > 100 µM
TGI [29]: > 100 µM
TGI [30]: > 100 µM
TGI [31]: > 100 µM
TGI [32]: > 100 µM
TGI [33]: > 100 µM
TGI [34]: > 100 µM
TGI [35]: > 100 µM
TGI [36]: > 100 µM
TGI [37]: > 100 µM
TGI [38]: > 100 µM
TGI [39]: > 100 µM
TGI [40]: > 100 µM
TGI [41]: > 100 µM
TGI [42]: > 100 µM
TGI [43]: > 100 µM
TGI [44]: > 100 µM
TGI [45]: > 100 µM
TGI [46]: > 100 µM
TGI [47]: > 100 µM
TGI [48]: > 100 µM
TGI [49]: > 100 µM
TGI [50]: > 100 µM
TGI [51]: > 100 µM
TGI [52]: > 100 µM
TGI [53]: > 100 µM
TGI [54]: > 100 µM
TGI [55]: > 100 µM

O=c1c2ccccc2nc(-c2ccccc2Cl)n1NCC1(O)OCC(O)C(O)C1O (configuration not stated)
TGI [1]: > 100 µM
TGI [2]: > 100 µM
TGI [3]: > 100 µM
TGI [4]: > 100 µM
TGI [5]: > 100 µM
TGI [6]: > 100 µM
TGI [7]: > 100 µM
TGI [8]: > 100 µM
TGI [9]: > 100 µM
TGI [11]: > 100 µM
TGI [13]: > 100 µM
TGI [14]: > 100 µM
TGI [15]: > 100 µM
TGI [16]: > 100 µM
TGI [17]: > 100 µM
TGI [56]: > 100 µM
TGI [19]: > 100 µM
TGI [20]: > 100 µM
TGI [21]: > 100 µM
TGI [22]: > 100 µM
TGI [23]: > 100 µM
TGI [24]: > 100 µM
TGI [25]: > 100 µM
TGI [57]: > 100 µM
TGI [26]: > 100 µM
TGI [27]: > 100 µM
TGI [28]: > 100 µM
TGI [29]: > 100 µM
TGI [30]: > 100 µM
TGI [31]: > 100 µM
TGI [33]: > 100 µM
TGI [34]: > 100 µM
TGI [35]: > 100 µM
TGI [36]: > 100 µM
TGI [37]: > 100 µM
TGI [38]: > 100 µM
TGI [39]: > 100 µM
TGI [40]: > 100 µM
TGI [41]: > 100 µM
TGI [42]: > 100 µM
TGI [43]: > 100 µM
TGI [58]: > 100 µM
TGI [44]: > 100 µM
TGI [45]: > 100 µM
TGI [46]: > 100 µM
TGI [48]: > 100 µM
TGI [49]: > 100 µM
TGI [50]: > 100 µM
TGI [52]: > 100 µM
TGI [53]: > 100 µM
TGI [54]: > 100 µM
TGI [55]: > 100 µM

CNS(=O)(=O)NN(C)S(=O)(=O)c1ccc(OC)cc1
TGI [1]: > 100 µM
TGI [2]: > 100 µM
TGI [3]: > 100 µM
TGI [6]: > 100 µM
TGI [7]: > 100 µM
TGI [8]: > 100 µM
TGI [9]: > 100 µM
TGI [10]: > 100 µM
TGI [11]: > 100 µM
TGI [13]: > 100 µM
TGI [14]: > 100 µM
TGI [15]: > 100 µM
TGI [16]: > 100 µM
TGI [17]: > 100 µM
TGI [18]: > 100 µM
TGI [19]: > 100 µM
TGI [20]: > 100 µM
TGI [21]: > 100 µM
TGI [22]: > 100 µM
TGI [23]: > 100 µM
TGI [24]: > 100 µM
TGI [25]: > 100 µM
TGI [57]: > 100 µM
TGI [26]: > 100 µM
TGI [27]: > 100 µM
TGI [28]: > 100 µM
TGI [29]: > 100 µM
TGI [30]: > 100 µM
TGI [32]: > 100 µM
TGI [33]: > 100 µM
TGI [34]: > 100 µM
TGI [35]: > 100 µM
TGI [36]: > 100 µM
TGI [37]: > 100 µM
TGI [38]: > 100 µM
TGI [39]: > 100 µM
TGI [41]: > 100 µM
TGI [42]: > 100 µM
TGI [43]: > 100 µM
TGI [58]: > 100 µM
TGI [44]: > 100 µM
TGI [45]: > 100 µM
TGI [46]: > 100 µM
TGI [47]: > 100 µM
TGI [48]: > 100 µM
TGI [49]: > 100 µM
TGI [50]: > 100 µM
TGI [51]: > 100 µM
TGI [53]: > 100 µM
TGI [54]: > 100 µM
TGI [55]: > 100 µM

CCC[CH2][Sn]1([CH2]CCC)[O]CC(c2ccccn2)C[O]1
GI50 [1]: 7.2 µM
TGI [1]: 34.5 µM
GI50 [2]: 15.9 µM
TGI [2]: 29.6 µM
GI50 [3]: 12.4 µM
TGI [3]: 41.7 µM
GI50 [4]: 19.9 µM
TGI [4]: 61.3 µM
GI50 [5]: 33.5 µM
TGI [5]: > 100 µM
GI50 [6]: 15.7 µM
TGI [6]: 29.6 µM
GI50 [7]: 18.2 µM
TGI [7]: 32.6 µM
GI50 [8]: 18.6 µM
TGI [8]: 33.1 µM
GI50 [9]: 15.5 µM
TGI [9]: 36.2 µM
GI50 [10]: 15.3 µM
TGI [10]: 29.8 µM
GI50 [11]: 26.7 µM
TGI [11]: 50.7 µM
GI50 [12]: 18.2 µM
TGI [12]: 36.6 µM
GI50 [13]: 16.2 µM
TGI [13]: 30.7 µM
GI50 [14]: 17 µM
TGI [14]: 34.4 µM
GI50 [15]: 3.14 µM
TGI [15]: 11.8 µM
GI50 [16]: 17.1 µM
TGI [16]: 35.3 µM
GI50 [17]: 22.1 µM
TGI [17]: 45 µM
GI50 [18]: 23.3 µM
TGI [18]: 68.6 µM
GI50 [56]: 15.4 µM
TGI [56]: 29.4 µM
GI50 [19]: 18.9 µM
TGI [19]: 33.3 µM
GI50 [20]: 15.4 µM
TGI [20]: 29.5 µM
GI50 [21]: 4.13 µM
TGI [21]: 34.8 µM
GI50 [22]: 22.5 µM
TGI [22]: 58 µM
GI50 [23]: 14.1 µM
TGI [23]: 28 µM
GI50 [24]: 17.9 µM
TGI [24]: 32.7 µM
GI50 [25]: 32.1 µM
TGI [25]: > 100 µM
GI50 [57]: 19.8 µM
TGI [57]: 34 µM
GI50 [26]: 23.2 µM
TGI [26]: 59.4 µM
GI50 [27]: 14.8 µM
TGI [27]: 29.2 µM
GI50 [28]: 17.3 µM
TGI [28]: 32.4 µM
GI50 [29]: 20.5 µM
TGI [29]: 38.3 µM
GI50 [30]: 19.5 µM
TGI [30]: 36.7 µM
GI50 [31]: 16.7 µM
TGI [31]: 30.5 µM
GI50 [32]: 20.2 µM
TGI [32]: 36.6 µM
GI50 [33]: 19.8 µM
TGI [33]: 35.3 µM
GI50 [34]: 19.4 µM
TGI [34]: 35.5 µM
GI50 [35]: 15.3 µM
TGI [35]: 29.5 µM
GI50 [36]: 20.3 µM
TGI [36]: 38.1 µM
GI50 [37]: 17.5 µM
TGI [37]: 31.7 µM
GI50 [38]: 20.7 µM
TGI [38]: 37.9 µM
GI50 [40]: 21.3 µM
TGI [40]: 42.6 µM
GI50 [41]: 19.3 µM
TGI [41]: 33.7 µM
GI50 [42]: 17.9 µM
TGI [42]: 36.8 µM
GI50 [43]: 10.2 µM
TGI [43]: 26.7 µM
GI50 [58]: 14 µM
TGI [58]: 28.5 µM
GI50 [44]: 15.6 µM
TGI [44]: 29.3 µM
GI50 [45]: 7.96 µM
TGI [45]: 20.5 µM
GI50 [46]: 7.65 µM
TGI [46]: 29.4 µM
GI50 [47]: 19.4 µM
TGI [47]: 34.3 µM
GI50 [48]: 29.6 µM
TGI [48]: 73.3 µM
GI50 [49]: 14.6 µM
TGI [49]: 65.8 µM
GI50 [50]: 7.39 µM
TGI [50]: 22.1 µM
GI50 [51]: 31 µM
TGI [51]: > 100 µM
GI50 [52]: 24.4 µM
TGI [52]: 84.8 µM
GI50 [53]: 17.2 µM
TGI [53]: 56 µM
GI50 [54]: 13.7 µM
TGI [54]: 27.7 µM
GI50 [55]: 7.93 µM
TGI [55]: 19.8 µM

From PubChem BioAssay (NCI)
